Entries after “also recorded” stand apart in the source; their conditions may differ.
What was measured:
Balb/c mice = experiment: Mouse caecum abrasion model of post surgical adhesion formation; type: in vivo; details: for total adhesions score: sacrifice day seven, vs vehicle; for adhesion score / length (mm) of caecum adherent to peritoneum, difference to vehicle groups: Compound X 200, Compound Y 30, calcitriol 0.6 ug/kg i.p. once, then orally at MTD (100, 3, 0.3 ug/kg) once a day for 4 days, day seven, Anova with Bonferroni, FIG. 3
Text: Female BALB/c mice (20 g; Charles River Breeding Laboratories) were used for all experiments. All mice were maintained under standard conditions of food and water ad libitum on a 12-hour day-night cycle according to Home Office regulations.
Adhesions were induced in mice with a protocol based on a procedure developed by Sulaiman and colleagues (Sulaiman H, Gabella G, Davis C, Mutsaers S E, Boulos P, Laurent G J, Herrick S E: Growth of nerve fibres into murine peritoneal adhesions. J Pathol 2000, 192:396-403). Briefly, mice were anesthetized with a mixture of inhaled isoflurane and oxygen, and a midline incision was made through the abdominal wall and peritoneum. A standard site (6 mm diameter and 1 mm depth), midway and 0.5 cm lateral to the midline incision on the left abdominal wall, was injured scraping 30 times with a scalpel blade. The cecum was isolated and scraped 30 times on its lateral aspect with a scalpel blade, after first irrigating with 0.9% sterile saline. The two injured surfaces were then apposed by placing two horizontal mattress sutures (8/0 Ethilon; Ethicon, Berkshire, UK) 1 cm apart. The midline incision was closed in two layers; the linea-alba with a continuous suture, and then the skin using michel suture clips (Aesculap, Tuttlingen Germany). This model was validated using leuprolide acetate, a GnRH agonist (Enantone, Takeida) injected at 1 mg/kg one week before surgery. The animals were sacrified at day 7 as usual and adhesion score reduction was evaluated.
To assess the effects of vitamin D compounds on adhesion formation, peritoneal adhesions were induced in 10 animals that were randomized to experimental groups receiving the vitamin D compound or vehicle. In the initial study, animals in the experimental group (n=5) received 0.1-ml i.p. injection of 200 ug/kg of Compound X in saline solution or vehicle (saline solution) only (n=5), at the surgery day then 4 days of daily oral administration (Compound X 100 ug/kg in miglyol or miglyol vehicle only). A second experiment was done with one group of animals (n=5) receiving 0.1-ml i.p. injection of 6 ug/kg of Compound Y in saline solution at the surgery day and then 4 days of daily oral administration (3 ug/kg in miglyol). Control animals (n=5) were similarly administered with vehicle alone (miglyol or saline solution according to the route of administration). The third experiment was designed to compare the effect of calcitriol. Briefly, 28 animals were operated and randomized four different groups: vehicle (miglyol or saline solution according to the route of administration) (n=13), Compound X i.p. […] 30 ug/kg plus three days oral administration at MTD (n=5), calcitriol i.p. […] All animals were killed at 7 days, and the adhesions were quantified in a blinded fashion. Each animal received an adhesion score based on the number, length and strength of adhesions formed. Millimetres of caecum adherent to peritoneum was also measured.

[1] = Colorimetric serum calcium level in animals of the adhesion experiment (FIG. 4); type: in vivo, mouse; details: animals of the FIG. 3 experiment
Experimental: (§1) Serum calcium was measured with Calcium Dry-fast kit (Sentinel diagnostics, Milan, Italy) with minor modification over the standard method: 10 ul serum, standard solution, or water are added to 100 ul of reconstituted assay reagent in a 96 well plate and incubated 5 min before reading at 550 nm, RT. Standards are run in quadruplicate, blank (water) in duplicate, and samples in triplicate.
Blood serum was obtained from animals of the experiment described in FIG. 3 and calcium level was measured.

[2] = Serum calcium levels in DUH rabbit model animals; type: in vivo; details: both doses; prior to surgery, 24 hours after surgery and prior to necropsy; FIG. 12
Experimental: One ml of blood was drawn into red top tubes prior to surgery, 24 hours after surgery and prior to necropsy to allow the generation of serum to measure serum calcium levels. The blood was allowed to clot, the serum harvested by centrifugation and the serum calcium measured.

[3] = tested on: Human mesothelial cells (LP9); experiment: tPA and PAI-1 production by ELISA in human mesothelial cells; type: cell-based; details: different doses; supernatants at 48 h; FIG. 8
Experimental: Human mesothelial cells (LP9, Cornell University) were plated in a 96 well plate in the presence of different doses of Compound Y. Supernatants were harvested at 48 h and tPA and PAI-1 production was measured by ELISA. tPA/PAI-1 ratio was calculated. Statistical analysis was performed by ANOVA test.

3T3-L1 cells = experiment: Fibrin clot lysis by mouse fibroblasts 3T3-L1; type: cell-based; details: cells incubated overnight with 10^-6 to 10^-9 M; normalized to untreated cells; FIG. 7
Experimental: Confluent 3T3-L1 cells were incubated overnight with the following compounds: TGF-β1 5 ng/ml, Compound Y 10^−6, 10^−7, 10^−8 and 10^−9 M. After removing the supernatants, Fibrinolysis Buffer containing 3 μM fibrinogen and 100 nM plasminogen (“BM”) was added to each well. A fibrin clot was induced by adding 20 nM thrombin. Plates were incubated at 37° C. and clot density was determined by measuring optical density at 405 nm. Results were shown as relative fibrin clot density at different timepoints normalized to untreated cells.

C57/BL6 mice = experiment: CLP (cecal ligation and puncture) mortality due to infection potentiation; type: in vivo, mouse; details: 30 mg/kg IP on the day of surgery; ten mice per group; vs vehicle; FIG. 15
Experimental: CLP (cecal ligation and puncture) was performed with 23G needle and 50-70% of cecal ligation. Compound Y 30 mg/kg was administered IP on the day of surgery. The mortality was checked twice a day. Ten C57/BL6 mice per group were used.

hairless mice = experiment: Full thickness wound healing mouse model; type: in vivo; details: daily oral 3 mg/kg, 5 days a week, 5 hairless mice per group, vs vehicle, FIG. 13
Experimental: One full thickness wound of 1 cm in diameter was marked using a template and the tissue was excised to the level of the panniculus carnosus using dissecting scissors and forceps. The wound healing was determined by drawing the wound margin with tracing film. The rate of wound healing is expressed as the percentage area remaining 5 hairless mice per group, daily oral treatment with 3 mg/kg of Compound Y, 5 days a week. Wound healing curve using the Boltzman equation and V50 (half time of wound healing) were calculated.

CPSS mouse model = experiment: CPSS (cecal peritoneal scraping and sewing) mouse model of post-surgical adhesion, dose response; type: in vivo; details: 30-100-300 ug/kg i.p. at the end of surgery; sacrifice after two weeks; vs vehicle; FIG. 10
Experimental: Different doses of Compound Y were tested in the CPSS (cecal peritoneal scraping and sewing) mouse model of post-surgical adhesion. Animals were treated with 30-100-300 ug/kg of Compound Y in […] of sterile saline with 0.1% Tween-20, 0.1% ethanol, i.p. at the end of surgery. Animals were sacrificed after two weeks and peritoneral adhesion evaluated. Means of in situ score of the four groups were compared and percentage of reduction of the mean in situ score of treated animals compared with vehicle group was considered.

[4] = tested on: New Zealand White rabbits; experiment: Double uterine horn (DUH) rabbit model of post-surgical adhesions; type: in vivo
Experimental: Animals: Twenty eight, female New Zealand White rabbits, 2.4-2.7 kg, were purchased from Irish Farms (Norco, Calif.) and quarantined for at least 2 days prior to use. Seven rabbits were randomized into four treatment groups prior to initiation of surgery. The rabbits were housed on a 12:12 light:dark cycle with food and water available ad libitum.
Double Uterine Horn Model: Rabbits were anesthetized with a mixture of 55 mg/kg ketamine hydrochloride and 5 mg/kg Rompum intramuscularly. Following preparation for sterile surgery, a midline laparotomy was performed. The uterine horns were exteriorized and traumatized by abrasion of the serosal surface with gauze until punctate bleeding developed. Ischemia of both uterine horns was induced by removal of the collateral blood supply. The remaining blood supply to the uterine horns was the ascending branches of the utero-vaginal arterial supply of the myometrium. Treated animals received 25 mL of either vehicle (lactated Ringers' solution with 0.1% Tween 20, 0.1% isopropyl alcohol), or vehicle with one of two doses of Compound Y (30 or 300 μg/kg). An additional group of animals received surgery only. The horns were then returned to their normal anatomic position and the midline sutured with 3-0 Vicryl. The animals were weighed before surgery and necropsy.
After 7 days, the rabbits were terminated and the percentage of the area of the horns adherent to various organs determined.
In addition an overall score which took into account all of the above data was given to each rabbit. The following scoring system was used:
The rabbits were scored by two independent observers that were blinded to the prior treatment of the animal. If there was disagreement as to the score to be assigned to an individual animal, the higher score was given.

[5] = Serum calcemia after i.p. or i.p. plus oral Compound Y in CD1 mice (FIG. 5); type: in vivo, mouse; details: different doses i.p., or i.p. plus oral for 3 days at MTD (3 ug/kg), 24 h after the last administration
Experimental: as §1
CD1 mice were used to test serum calcemia after different doses of Compound Y administered i.p. A second group of animals received both i.p. (different doses) and oral administration for 3 days at MTD (3 ug/kg). Serum calcemia was measured 24 h after the last administration.

Human mesothelial cells = experiment: VEGF and TGF-b production by ELISA in human mesothelial cells; type: cell-based; details: different doses; supernatants at 48 h; FIG. 14
Experimental: Human mesothelial cells (Cornell Cell Repositories) were plated in a 96 well plate in the presence of different doses of Compound Y. Supernatants were harvested at 48 h and VEGF and TGF-b production was measured by ELISA. Total number of live cells were quantified by fluorimetric assay.

[6] = Intraperitoneal single administration, serum calcium levels; type: in vivo, mouse; details: female BALB/c mice, single i.p., FIG. 9

## CCNC(=O)[C@@H]1CCCN1C(=O)[C@H](CCCNC(=N)N)NC(=O)[C@H](CC(C)C)NC(=O)[C@@H](CC(C)C)NC(=O)[C@H](Cc1ccc(O)cc1)NC(=O)[C@H](CO)NC(=O)[C@H](Cc1c[nH]c2ccccc12)NC(=O)[C@H](Cc1c[nH]cn1)NC(=O)[C@@H]1CCC(=O)N1 [leuprolide acetate, reference compound]
Balb/c mice; 1 mg/kg injected one week before surgery, sacrifice day 7, model validation, FIG. 6
  total adhesion score: statistically significant reduction

## C=C1/C(=C\C=C2/CCC[C@]3(C)C([C@@H](C)C/C=C/C(O)(CC)CC)=CC[C@@H]23)C[C@@H](O)C[C@@H]1F [Compound X, 1-alpha-fluoro-25-hydroxy-16,23E-diene-26,27-bishomo-20-epi-cholecalciferol]
Balb/c mice; 200 ug/kg i.p. once four hours after surgery, then oral 100 ug/kg once a day for 4 days, FIG. 1
  total adhesions score: significantly reduces
Balb/c mice
  adhesion score / length (mm) of caecum adherent to peritoneum, difference to vehicle groups: statistically significant
[1]
  serum calcium level: slightly hypercalcemic

## CC(C)(O)CCCC(CCCC(C)(C)O)[C@H]1CC[C@H]2/C(=C/C=C3C[C@@H](O)C[C@H](O)C3)CCC[C@]12C [Compound Y, 1,25-dihydroxy-21-(3-hydroxy-3-methylbutyl)-19-nor-cholecalciferol]
[2]
  serum calcium (signs of hypercalcemia): No signs of hypercalcemia
[3]
  tPA/PAI-1 ratio: increased
3T3-L1 cells
  fibrin clot lysis (relative fibrin clot density, OD 405 nm): accelerates fibrin clot lysis by mouse fibroblasts in a dose dependent manner
C57/BL6 mice
  mortality (survival curves, log rank test): no statistically significant difference
Hairless mice
  wound healing (percentage wound area remaining, healing curve, V50): No statistically significant difference; also recorded: does not delay wound healing
CPSS mouse model
  cecal-peritoneal adhesion formation (mean in situ score): reduces cecal-peritoneal adhesion formation in a dose dependent manner
Balb/c mice; 6 ug/kg i.p. once four hours after surgery, then orally 3 ug/kg once a day for 4 days, FIG. 2
  total adhesions score: significantly reduces
Balb/c mice
  adhesion score / length (mm) of caecum adherent to peritoneum, difference to vehicle groups: statistically significant
[4]; 30 or 300 ug/kg in 25 mL at surgery, 7 days, P<0.001 for both doses compared with both controls, FIG. 11
  adhesion formation (overall adhesion score): significantly reduced
[4]; 30 or 300 ug/kg, necropsy after 7 days
  peritoneal inflammation, weight loss or hypercalcemia at necropsy: No peritoneal inflammation, weight loss or hypercalcemia were observed
[4]; DUH rabbit model, icodextrin data from Verco et al. 2000, FIG. 16
  efficacy in preventing adhesion formation compared with prior studies of icodextrin: comparable efficacy
[4]; DUH rabbit model, lazaroid data from Rodgers et al. 1998, FIG. 17
  efficacy in preventing adhesion formation compared with prior studies of lazaroids: comparable efficacy
[5]
  serum calcemia: no hypercalcemic effect
Human mesothelial cells
  TGF-b production: does not affect
  VEGF production: does not affect
[6]; high dosage (300 mg/kg)
  serum calcemia: Transient hypercalcemia

## C=C1/C(=C\C=C2/CCC[C@]3(C)[C@@H]([C@H](C)CCCC(C)(C)O)CC[C@@H]23)C[C@@H](O)C[C@@H]1O [calcitriol, reference compound]
Balb/c mice
  adhesion score / length (mm) of caecum adherent to peritoneum, difference to vehicle groups: statistically significant
[6]; 16 and 24 hours after administration
  serum calcemia: more pronounced and sustained hypercalcemia

— patent publication US20100093675A1, “NOVEL METHOD” (BIOXELL S.P.A., priority 2006, published 2010)
